Patent US6369226B1, “Substituted benzamide inhibitors of rhinovirus 3C protease” (Agouron Pharmaceuticals, Inc., priority 1999, dated 2002)
Like-named read-outs stand apart in the source and are kept apart here.

Experiments:
HRV-14 3CP = molecular target: T1, HRV-14 3CP (Human rhinovirus 14, UniProt P03303); test: 3CP enzyme inhibition assay; format: biochemical; settings: for kinact/KI: read-out: Kobs/[I]
T1 construct: The 2A and 3C protease (3CP) process this polyprotein into its functional viral proteins in HRV
Text: 3CP Inhibition Assays and Antiviral Assays The details of the 3CP enzyme assays used and the antiviral assays used are outlined in Dragovich, P. S., Webber, S. E, Babine, R. E., Fuhrman, S. A., Patick, A. K., Matthews, D. A., Lee, C. A., Reich, S. H., Prins, T. J., Marakovits, J. T., Littlefield, E. S., Zhou, R., Tikhe, J., Ford, C. E., Wallace, M. B., Meador, III, J. W., Ferre, R., Brown, E. L., Binford, S. L, Harr, , J. E. V., DeLisle, D. M. and Worland, S. T. Structure-Based Design, Synthesis, and Biological Evaluation of Irreversible Human Rhinovirus 3C Protease Inhibitors. 1. Michael Acceptor Structure-Activity Studies J. Med. Chem. 1998,41, 2806, the disclosure of which is incorporated by reference herein.

HRV-14 = test: antiviral cytopathic effect assay employing H1-HeLa cells infected with HRV-14; format: cell-based, human rhinovirus serotype 14; settings: for EC50: Rhinovirus B, HRV14, H1-HeLa
[1] = cytotoxicity (CC50) in the antiviral cell culture assay; settings: human
3CP = molecular target: T2, 3CP (Human rhinovirus 14, UniProt P03303); test: loss of 3CP inhibitory activity after exposure of compound to DTT; format: biochemical; settings: for DTT inhib.: loss of 3CP inhibitory activity after exposure to 5 mM DTT for 2-3 min at 23° C.
T2 construct: The 2A and 3C protease (3CP) process this polyprotein into its functional viral proteins in HRV
Protocol: With this information in hand, additional esters were prepared and tested. It was anticipated that by filling the active site in the prime direction (S1′-S2′), additional affinity might be obtained. […] To determine whether the activity of the parent compound 1 was due to the inherent reactivity of the unsaturated ester, alternative substitutions were examined in the 1-position corresponding to the S1 recognition pocket. […] (Webber, S. E., Tikhe, J., Worland, S. T., Fuhrman, S. A., Hendrickson, T. F., Matthews, D. A., Love, R. A., Patick, A. K., Meador, J. W., Ferre, R. A., Brown, E. L., DeLisle, D. M., Ford, C. E., Binford, S. L. Design, Synthesis, and Evaluation of Nonpeptidic Inhibitors of Human Rhinovirus 3C Protease. J. Med. Chem. 1996, 39, 5072-5082.) Increased activation of the Michael acceptor toward nucleophilic addition, by alpha cyano substitution, led to a modest but reversible inhibitor, compound 9. Various unsaturated imides, also expected to be more reactive than an unsaturated ester, were poor inhibitors. Exploration of α,β-unsaturated ketones led to some interesting findings. […] When tested in the antiviral assay, ketones in general had greater toxicity (lower CC50) and no measurable antiviral effect. […] (Dragovich, P. S., Webber, S. E, Babine, R. E., Fuhrman, S. A., Patick, A. K., Matthews, D. A., Lee, C. A., Reich, S. H., Prins, T. J., Marakovits, J. T., Littlefield, E. S., Zhou, R., Tikhe, J., Ford, C. E., Wallace, M. B., Meador, III, J. W., Ferre, R., Brown, E. L., Binford, S. L, Harr, J.E. V., DeLisle, D. M. and Worland, S. T. Structure-Based Design, Synthesis, and Biological Evaluation of Irreversible Human Rhinovirus 3C Protease Inhibitors. 1. Michael Acceptor Structure-Activity Studies J. Med. Chem. 1998,41, 2806.) Electron-donating substituents at the 4-position of the phenyl ketone (4-Me2N—, 4-MeO—), were expected to make the ketones less reactive, however, no effect on their inactivation with DTT was observed. Similarly, heterocyclic ketones (2-pyridyl, 2-furyl) maintained their reactivity with DTT. In an attempt to make the inhibitors more compact, an indenone scaffold was designed. […] It became clear that while small, nonpeptidic α,β-unsaturated ketones such as compound 22 afforded potent […] inhibition of 3CP, this increased reactivity was incompatible with the more complex cellular milieu present in the cytopathic effect assay.

[2] = Table 1, Serotype 14, NI = no inhibition

T1 sequence (P03303 1538-1719): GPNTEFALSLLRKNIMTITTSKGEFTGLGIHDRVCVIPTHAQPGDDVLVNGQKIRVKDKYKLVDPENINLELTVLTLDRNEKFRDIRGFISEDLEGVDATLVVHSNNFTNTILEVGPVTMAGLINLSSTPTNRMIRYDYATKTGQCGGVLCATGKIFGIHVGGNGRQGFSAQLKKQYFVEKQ
T2 sequence (P03303 1538-1719): as above

Molecule	EC50 (HRV-14)	CC50 [1]	other results
3-[3-Carbamoyl-5-(5-pyridin-2-yl-[1,3,4]oxaldiazol-2-ylsulfanylmethyl-phenyl]-acrylic acid ethyl ester [Compound 25]			Kobs/[I] (HRV-14 3CP; Table 3, Serotype 14): 286 M⁻¹ s⁻¹
CCOC(=O)/C=C/c1cccc(C(N)=O)c1 [Compound 1, 3-(3-Carbamoylphenyl)-acrylic acid ethyl ester]	15.9 µM	> 320 µM	kinact/KI (HRV-14 3CP): 52 M⁻¹ s⁻¹; melting point: 168 to 170 °C
NC(=O)c1cccc(C=O)c1 [Compound 1a, 3-Carbamoyl-benzaldehyde]			Ki (HRV-14 3CP): 104 µM
COC(=O)/C=C/c1cccc(C(N)=O)c1 [Compound 2, 3-(3-Carbamoyl-phenyl)-acrylic acid methyl ester]	150 µM	> 320 µM	kinact/KI (HRV-14 3CP; [2]): 28 M⁻¹ s⁻¹; fold less active in the antiviral assay relative to ethyl ester compound 1 (HRV-14): 10 fold
NC(=O)c1cccc(C=CC(=O)OCc2ccccc2)c1 [Compound 3, 3-(3-Carbamoyl-phenyl)-adrylic acid benzyl ester]			Kobs/[I] (HRV-14 3CP; [2]): 25 M⁻¹ s⁻¹; CC50 (H1-HeLa cells): > 100 µM
NC(=O)c1cccc(C=CC(=O)OCCO)c1 [Compound 4, 3-(3-Carbamoyl-phenyl)-acrylic acid 2-hydroxyethyl ester]	20 µM	> 320 µM	kinact/KI (HRV-14 3CP; [2]): 42 M⁻¹ s⁻¹
NC(=O)c1cccc(C=CC(=O)OCCc2ccccc2)c1 [Compound 5, 3-(3-Carbamoyl-phenyl)-acrylic acid phenethyl ester]	100 µM	> 320 µM	kinact/KI (HRV-14 3CP; [2]): 83 M⁻¹ s⁻¹
NC(=O)c1cccc(C=CC(=O)OCc2cccnc2)c1 [Compound 6, 3-(3-Carbamoyl-phenyl)-acrylic acid pyridin-3-yl methyl ester]			Kobs/[I] (HRV-14 3CP; [2]): 57 M⁻¹ s⁻¹
CCOC(=O)/C(C#N)=C/c1cccc(C(N)=O)c1 [Compound 9, (E)-3-(3-Carbamoyl-phenyl)-2-cyano-acrylic acid ethyl ester]	> 100 µM	> 100 µM	
CCOC(=O)/C=C/c1cc(C(N)=O)ccc1C [Compound 10, 6-Methyl-3-(3-carbamoylphenyl)-acrylic acid ethyl ester]	> 100 µM	> 100 µM	% inhibition (printed in the Kobs/[I] column) (HRV-14 3CP; @ 25 (concentration unit not given), Serotype 14): 10% @ 25
CCOC(=O)/C=C/c1cc(O)cc(C(N)=O)c1 [Compound 11, 3-(3-Carbamoyl-5-hydroxy-phenyl)-acrylic acid ethyl ester]	> 100 µM	> 100 µM	kinact/KI (HRV-14 3CP; [2]): 47 M⁻¹ s⁻¹; melting point: 200 to 202 °C
CCOC(=O)C=Cc1cc(OCc2ccccc2)cc(C(N)=O)c1 [Compound 12, 3-(3-Benzyloxy-5-carbamoyl-phenyl)-acrylic acid ethyl ester]			melting point: 193 to 194 °C
CCOC(=O)/C=C/c1cc(CO)cc(C(N)=O)c1 [Compound 13, 3-(3-Carbamoyl-5-hydroxymethyl-phenyl)-acrylic acid ethyl ester]	> 100 µM	> 100 µM	kinact/KI (HRV-14 3CP; [2]): 54 M⁻¹ s⁻¹
CCOC(=O)C=Cc1ccc(OCc2ccccc2)c(C(N)=O)c1 [Compound 15, 3-(4-Benzyloxy-3-carbamoyl-phenyl)-acrylic acid ethyl ester]	> 320 µM	> 320 µM	kinact/KI (HRV-14 3CP; [2]): 30 M⁻¹ s⁻¹
CC(=O)C=Cc1cccc(C(N)=O)c1 [Compound 16, 3-(3-Oxo-but-1-enyl)-benzamide]	32 µM	40 µM	DTT inhib. (3CP): yes
NC(=O)c1cccc(C=CC(=O)c2ccccc2)c1 [Compound 17, 3-(3-Oxo-3-phenyl-prop-1-enyl)-benzamide]	28 µM	> 28 µM	DTT inhib. (3CP): yes
CN(C)c1ccc(C(=O)/C=C/c2cccc(C(N)=O)c2)cc1 [Compound 18, 3-[3-(4-Dimethylamino-phenyl)-oxo-propenyl] benzamide]	> 15 µM	> 15 µM	DTT inhib. (3CP): yes
COc1ccc(C(=O)/C=C/c2cccc(C(N)=O)c2)cc1 [Compound 19, 3-[3-(4-Methoxy-phenyl)-oxo-propenyl] benzamide]	> 22 µM	> 22 µM	DTT inhib. (3CP): yes
NC(=O)c1cccc(C=CC(=O)c2ccccn2)c1 [Compound 20, 3-(3-Oxo-3-pyridin-2-yl-propenyl)-benzamide]	> 50 µM	> 50 µM	DTT inhib. (3CP): yes
NC(=O)c1cccc(C=CC(=O)c2ccco2)c1 [Compound 21, 3-(3-Furan-2-yl-3-oxo-propenyl)-benzamide]	> 71 µM	> 71 µM	DTT inhib. (3CP): yes
NC(=O)c1ccc2c(c1)C=CC2=O [Compound 22, 1-Oxo-1H-indene-5-carboxylic acid amide]	> 20 µM	> 20 µM	DTT inhib. (3CP): yes; inactivation by DTT (in words) (3CP; upon incubation with DTT): inactivated by DTT; melting point: 275 °C (dec.); antiviral activity (in words) (HRV-14): no antiviral activity
CCOC(=O)C=Cc1cc(CN(CCC(=O)OCC)Cc2ccccc2)cc(C(N)=O)c1 [Compound 23, 3-(3-{[Benzyl-(2-ethoxycarbonyl-ethyl)-amino]-methyl}-5-carbamoyl-phenyl)-acrylic acid ethylester]	10 µM	> 100 µM	kinact/KI (HRV-14 3CP; Table 3, Serotype 14): 568 M⁻¹ s⁻¹
CCOC(=O)C=Cc1cc(CN2CCN(c3ccccn3)CC2)cc(C(N)=O)c1 [Compound 26, 3-[3-Carbamoyl-5-(4-pyridin-2-yl-piperizin-1-methyl)-phenyl]-acrylic acid ethyl ester]			Kobs/[I] (HRV-14 3CP; Table 3, Serotype 14): 269 M⁻¹ s⁻¹
CCOC(=O)C=Cc1cc(CN2CCN(C(=O)OCC)CC2)cc(C(N)=O)c1 [Compound 28, 4-[3-Carbamoyl-5-(2-ethoxycarbonyl-vinyl)-benzyl]-piperazine-1-carboxylic acid ethyl ester]	1.8 µM	> 100 µM	kinact/KI (HRV-14 3CP): 130 M⁻¹ s⁻¹
CCOC(=O)C=Cc1cc(CN2CCN(c3ncccn3)CC2)cc(C(N)=O)c1 [Compound 29, 3-{3-Carbamoyl-5-(4-pyrimidin-2-yl-piperazin-1-ylmethyl)-phenyl}-acrylic acid ethyl ester]		> 100 µM	kinact/KI (HRV-14 3CP): 163 M⁻¹ s⁻¹; EC50 (HRV-14; Table 3, Serotype 14, read-out: EC50): 1 µM
CCOC(=O)C=Cc1cc(CN2CCN(c3ccccc3C#N)CC2)cc(C(N)=O)c1 [Compound 30, 3-{3-Carbamoyl-5-[4-(2-cyano-phenyl)-piperazin-1-ylmethyl]-phenyl}-acrylicacid ethyl ester]	0.6 µM	79 µM	kinact/KI (HRV-14 3CP; Table 3, Serotype 14): 139 M⁻¹ s⁻¹; antiviral activity (in words) (HRV-14): submicromolar antiviral activity; EC50 (HRV-14; read-out: antiviral EC50): 0.6 µM
